For one experiment, the system named is Lactobacillus plantarum Strain PL62. The experiment can be described thus: Antibiotic resistance (diameter of growth inhibition). The class given is cell-based.
Settings: not given
From the text: The stronger antibiotic resistance a probiotic has, the higher survivability within the intestines is. Thus, the stronger an antibiotic resistance is, the better it is. However, if an antibiotic resistance is transferred, resistance problems may be brought about. It was confirmed whether an antibiotic resistance was transferred to other bacteria or not.
With `CCC[C@@H]1C[C@@H](C(=O)N[C@@H]([C@H]2O[C@H](SC)[C@H](O)[C@@H](O)[C@H]2O)[C@H](C)Cl)N(C)C1` [Clindamycin], the “Diameter (mm) of growth inhibition” value is listed as 20 mm. As to `O=C(N[C@H](CO)[C@H](O)c1ccc([N+](=O)[O-])cc1)C(Cl)Cl` [Chloramphenicol], the “Diameter (mm) of growth inhibition” value is given as 30 mm. As to Trimethpprime/sulfamethoxasole, the “Diameter (mm) of growth inhibition” value amounted to 28 mm. Consider `CC(=O)OCC1=C(C(=O)O)N2C(=O)[C@@H](NC(=O)Cc3cccs3)[C@H]2SC1` [Cephalothin], for which the “Diameter (mm) of growth inhibition” value was 25 mm.

With Penicillin, the “Diameter (mm) of growth inhibition” value was determined as 29 mm. For the compound `CC[C@H]1OC(=O)[C@H](C)[C@@H](O[C@H]2C[C@@](C)(OC)[C@@H](O)[C@H](C)O2)[C@H](C)[C@@H](O[C@@H]2O[C@H](C)C[C@H](N(C)C)[C@H]2O)[C@](C)(O)C[C@@H](C)C(=O)[C@H](C)[C@@H](O)[C@]1(C)O` [Erythromycin], the “Diameter (mm) of growth inhibition” value came out at 32 mm. Consider `CN(C)[C@@H]1C(O)=C(C(N)=O)C(=O)[C@@]2(O)C(O)=C3C(=O)c4c(O)cccc4[C@@](C)(O)[C@H]3C[C@@H]12` [Tetracycline], for which the “Diameter (mm) of growth inhibition” value was 24 mm. Still for that read-out and setting: then `CCN1CCN(C(=O)N[C@@H](C(=O)N[C@@H]2C(=O)N3C(C(=O)O)=C(CSc4nnnn4C)CS[C@H]23)c2ccc(O)cc2)C(=O)C1=O` [Cefoperazone], with 22 mm; and Gentamicin, with 12 mm; and `Cc1onc(-c2ccccc2)c1C(=O)N[C@@H]1C(=O)N2[C@@H]1SC(C)(C)[C@@H]2C(=O)O` [Oxacillin], with 11 mm. As to `[H]/N=C(/N)N[C@H]1[C@H](O)[C@@H](O)[C@H](O[C@@H]2O[C@@H](C)[C@](O)(C=O)[C@H]2O[C@@H]2O[C@@H](CO)[C@H](O)[C@@H](O)[C@@H]2NC)[C@@H](N/C(N)=N\[H])[C@@H]1O` [Streptomycin], the “Diameter (mm) of growth inhibition” value is 8 mm.

Regarding `CC1(C)S[C@@H]2[C@H](NC(=O)C(C(=O)O)c3ccccc3)C(=O)N2[C@H]1C(=O)O` (some centres unmarked) [Carbenicillin], the “Diameter (mm) of growth inhibition” value came out at 29 mm. Take `CO[C@H]1/C=C/O[C@@]2(C)Oc3c(C)c(O)c4c(O)c(c(/C=N/N5CCN(C)CC5)c(O)c4c3C2=O)NC(=O)/C(C)=C\C=C\[C@H](C)[C@H](O)[C@@H](C)[C@@H](O)[C@@H](C)[C@H](OC(C)=O)[C@@H]1C` [Rifampin]: the “Diameter (mm) of growth inhibition” value came to 24 mm. Take `CC1(C)S[C@@H]2[C@H](NC(=O)[C@H](N)c3ccccc3)C(=O)N2[C@H]1C(=O)O` [Ampicillin]: the “Diameter (mm) of growth inhibition” value is reported as 34 mm. In the case of `CCN1CCN(C(=O)N[C@@H](C(=O)N[C@@H]2C(=O)N3[C@@H]2SC(C)(C)[C@@H]3C(=O)O)c2ccccc2)C(=O)C1=O` [Piperacilin], the “Diameter (mm) of growth inhibition” value amounted to 37 mm. In the case of `CN[C@H](CC(C)C)C(=O)N[C@H]1C(=O)N[C@@H](CC(N)=O)C(=O)N[C@H]2C(=O)N[C@H]3C(=O)N[C@H](C(=O)N[C@H](C(=O)O)c4cc(O)cc(O)c4-c4cc3ccc4O)[C@H](O)c3ccc(c(Cl)c3)Oc3cc2cc(c3O[C@@H]2O[C@H](CO)[C@@H](O)[C@H](O)[C@H]2O[C@H]2C[C@](C)(N)[C@H](O)[C@H](C)O2)Oc2ccc(cc2Cl)[C@H]1O` [Vancomycin], the “Diameter (mm) of growth inhibition” value is 6 mm.

A further experiment concerns overweight people.
Assay: not given
As to conditions: 180 overweight people, one year; cited from earlier work.
As for conjugated linoleic acid [CLA], the weight loss is reported as 4-10%.

The values above are taken from patent US20080057044A1, “Lactobacillus Plantarum with Body-Fat Reducing Activity and the Foods Containing Them” (priority 2004, published 2008).
